Assays:
mTOR = mTOR (Homo sapiens, UniProt P42345); test: mTOR enzyme assay (DELFIA, purified FLAG-TOR, His6-S6K substrate); assay type: biochemical; parameters: FLAG; settings: 100 μM ATP, 2 hours
MDA468 = test: In vitro cell growth assay (MTS), MDA468; assay type: cell-based; settings: 72 h, human breast line MDA468, three days after drug treatment, read-out: MDA IC50
Procedure: (§1) The cell lines used were human prostate lines LNCap and PC3MM2, human breast lines MDA468 and MCF7, human renal line HTB44 (A498), human colon line HCT116, and human ovarian line OVCAR3. Cells were plated in 96-well culture plates. One day following plating, the inhibitors were added to cells. Three days after drug treatment, viable cell densities were determined by metabolic conversion (by viable cells) of the dye MTS, a well-established cell proliferation assay. The assays were performed using an assay kit purchased from Promega Corp. (Madison, Wis.) following the protocol supplied with the kit. The MTS assay results were read in a 96-well plate reader by measuring absorbance at 490 nm. The effect of each treatment was calculated as percent of control growth relative to the vehicle-treated cells grown in the same culture plate.

PI3K-alpha = PI3K-alpha (Homo sapiens, UniProt P42336); test: PI3K-alpha fluorescence polarization assay; assay type: biochemical; settings: 20 μM PIP2, 25 μM ATP; read-out: PI3Kα IC50
Procedure: The reaction buffer was 20 mM HEPES, pH 7.5, 2 mM MgCl2, 0.05% CHAPS; and 0.01% βME (added fresh). The stop/detection buffer was 100 mM HEPES, pH 7.5, 4 mM EDTA, 0.05% CHAPS; ATP 20 mM in water; PIP2 (diC8, Echelon, Salt Lake City Utah cat #P-4508) 1 mM in water (MW=856.5). The GST-GRP was 1.75 mg/mL or 1.4 mg/mL in 10% glycerol. The red detector (TAMRA) was 2.5 μM. Nunc 384-well black polypropylene fluorescent plates were used for PI3K assays.
The assay is run by placing 5 μL of diluted enzyme per well, then 5 μL of diluted compound (or 9.5 μL enzyme then 0.5 μL compound in DMSO) is added and mixed. Then, 10 μL substrate is added to start the reaction. The samples are incubated 30-60 minutes, then the reaction is stopped by adding 20 μL stop/detector mix. PI3K is diluted with reaction buffer (e.g., 5 μL or 7.5 μL PI3K into 620 μL reaction buffer), and 5 μL of diluted enzyme is used per well. A 5 μL portion of reaction buffer or of drug diluted in buffer (e.g., 4 μL/100 so final DMSO is 1% in reaction) is added to each. Pipetting up and down mixes the samples. Alternatively, the enzyme can be diluted to 1215 μL. In this case 9.8 μL is added per well and 0.2 μL compound is added in DMSO.
To prepare 1 mL of substrate solution, 955 μL reaction buffer, 40 μL PIP2, and 2.5 μL ATP are mixed. 10 μL of substrate is added to each well to start the reaction. […] The stop/detector mix is prepared by mixing 4 μL red detector and 1.6 μL or 2.0 μL GST-GRP with 1 mL stop buffer, which results in 10 nM probe and 70 nM GST-GRP. 20 μL of the stop/detector mix is added to each well to stop the reaction. The plates are read after 30-90 minutes keeping the red probe solutions dark. For the zero time point, stop/detector mix is added to the enzyme just before adding substrate. For an extra control, stop/detector mix is added to buffer (no enzyme) and substrate or to just buffer (no substrate). […] The recommended reaction has 0.06 μL per 20 μL (0.015 μg/20 μL) or 0.01125 μg/15 μL or 0.75 μg/mL.
Plates are read on machines with filters for TAMRA. The units are mP with no enzyme controls reading app 190-220 mP units. Fully active enzyme reduces fluorescence polarization down to 70-100 mP after 30 minutes. An active compound raises the mP values halfway to control or to 120-150 mP units.

LNCap = test: In vitro cell growth assay (MTS), LNCap; assay type: cell-based; settings: LNCaP, 72 h, human prostate line, three days after drug treatment
Procedure: as §1

mTOR, sequence (P42345 1360-2549 limits assumed): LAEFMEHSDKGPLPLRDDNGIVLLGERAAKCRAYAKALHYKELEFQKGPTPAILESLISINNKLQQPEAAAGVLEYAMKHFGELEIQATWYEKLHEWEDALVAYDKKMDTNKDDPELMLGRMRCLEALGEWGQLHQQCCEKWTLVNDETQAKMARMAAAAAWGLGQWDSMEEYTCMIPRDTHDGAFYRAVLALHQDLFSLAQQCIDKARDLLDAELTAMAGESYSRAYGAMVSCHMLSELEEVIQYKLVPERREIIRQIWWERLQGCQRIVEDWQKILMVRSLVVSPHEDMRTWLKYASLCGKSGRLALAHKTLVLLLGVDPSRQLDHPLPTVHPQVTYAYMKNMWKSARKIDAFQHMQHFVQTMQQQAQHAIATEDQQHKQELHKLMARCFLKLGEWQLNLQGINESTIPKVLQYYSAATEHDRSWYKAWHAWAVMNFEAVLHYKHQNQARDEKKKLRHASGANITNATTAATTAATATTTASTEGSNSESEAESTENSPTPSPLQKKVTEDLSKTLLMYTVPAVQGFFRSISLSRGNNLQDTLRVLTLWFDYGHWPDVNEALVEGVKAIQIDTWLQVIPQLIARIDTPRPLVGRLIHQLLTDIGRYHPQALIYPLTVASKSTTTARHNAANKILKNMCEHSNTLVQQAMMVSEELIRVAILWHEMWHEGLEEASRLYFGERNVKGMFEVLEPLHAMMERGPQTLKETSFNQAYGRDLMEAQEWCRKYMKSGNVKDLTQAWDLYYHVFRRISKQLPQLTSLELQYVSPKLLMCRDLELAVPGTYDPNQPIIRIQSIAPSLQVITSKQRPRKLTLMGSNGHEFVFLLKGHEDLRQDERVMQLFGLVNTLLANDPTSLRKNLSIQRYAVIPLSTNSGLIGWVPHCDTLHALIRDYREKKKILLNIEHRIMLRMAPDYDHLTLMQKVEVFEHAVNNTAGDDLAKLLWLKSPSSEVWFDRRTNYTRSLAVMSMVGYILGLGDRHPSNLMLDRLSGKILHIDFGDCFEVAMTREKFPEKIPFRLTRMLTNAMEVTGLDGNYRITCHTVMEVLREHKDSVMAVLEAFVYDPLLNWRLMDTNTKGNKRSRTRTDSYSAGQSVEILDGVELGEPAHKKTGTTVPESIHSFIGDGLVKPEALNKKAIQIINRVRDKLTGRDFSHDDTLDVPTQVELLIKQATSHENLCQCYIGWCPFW
PI3K-alpha, sequence (P42336 whole entry, species assumed): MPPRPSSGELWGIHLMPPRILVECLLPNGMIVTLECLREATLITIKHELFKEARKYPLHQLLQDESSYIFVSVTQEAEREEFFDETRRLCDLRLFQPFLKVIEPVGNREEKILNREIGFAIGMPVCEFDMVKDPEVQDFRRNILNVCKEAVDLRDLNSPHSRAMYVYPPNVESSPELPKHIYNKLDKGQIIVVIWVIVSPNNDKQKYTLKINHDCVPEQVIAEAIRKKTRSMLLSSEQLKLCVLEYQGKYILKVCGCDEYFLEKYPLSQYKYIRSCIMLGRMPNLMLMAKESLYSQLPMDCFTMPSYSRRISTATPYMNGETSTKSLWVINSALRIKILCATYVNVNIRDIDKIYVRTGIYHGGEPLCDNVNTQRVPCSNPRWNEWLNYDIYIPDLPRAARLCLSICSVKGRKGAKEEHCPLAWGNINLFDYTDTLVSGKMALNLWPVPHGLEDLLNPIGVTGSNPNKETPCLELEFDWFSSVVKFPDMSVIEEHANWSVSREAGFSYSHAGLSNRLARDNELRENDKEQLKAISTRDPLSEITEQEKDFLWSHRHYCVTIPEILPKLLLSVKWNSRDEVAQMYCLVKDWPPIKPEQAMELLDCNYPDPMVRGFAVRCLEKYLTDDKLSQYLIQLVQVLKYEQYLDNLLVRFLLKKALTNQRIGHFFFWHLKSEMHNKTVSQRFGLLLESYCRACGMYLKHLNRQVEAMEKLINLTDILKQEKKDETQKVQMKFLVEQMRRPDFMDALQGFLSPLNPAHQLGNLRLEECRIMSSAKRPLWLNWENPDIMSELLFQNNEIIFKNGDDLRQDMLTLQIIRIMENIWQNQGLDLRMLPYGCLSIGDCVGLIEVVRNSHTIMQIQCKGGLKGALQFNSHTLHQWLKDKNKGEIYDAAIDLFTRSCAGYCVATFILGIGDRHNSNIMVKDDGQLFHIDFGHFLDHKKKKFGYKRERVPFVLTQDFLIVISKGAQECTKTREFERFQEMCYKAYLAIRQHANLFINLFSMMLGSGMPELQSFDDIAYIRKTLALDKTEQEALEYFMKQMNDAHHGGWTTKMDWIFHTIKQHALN
PI3K-alpha, sequence (P27986 whole entry partner, species assumed): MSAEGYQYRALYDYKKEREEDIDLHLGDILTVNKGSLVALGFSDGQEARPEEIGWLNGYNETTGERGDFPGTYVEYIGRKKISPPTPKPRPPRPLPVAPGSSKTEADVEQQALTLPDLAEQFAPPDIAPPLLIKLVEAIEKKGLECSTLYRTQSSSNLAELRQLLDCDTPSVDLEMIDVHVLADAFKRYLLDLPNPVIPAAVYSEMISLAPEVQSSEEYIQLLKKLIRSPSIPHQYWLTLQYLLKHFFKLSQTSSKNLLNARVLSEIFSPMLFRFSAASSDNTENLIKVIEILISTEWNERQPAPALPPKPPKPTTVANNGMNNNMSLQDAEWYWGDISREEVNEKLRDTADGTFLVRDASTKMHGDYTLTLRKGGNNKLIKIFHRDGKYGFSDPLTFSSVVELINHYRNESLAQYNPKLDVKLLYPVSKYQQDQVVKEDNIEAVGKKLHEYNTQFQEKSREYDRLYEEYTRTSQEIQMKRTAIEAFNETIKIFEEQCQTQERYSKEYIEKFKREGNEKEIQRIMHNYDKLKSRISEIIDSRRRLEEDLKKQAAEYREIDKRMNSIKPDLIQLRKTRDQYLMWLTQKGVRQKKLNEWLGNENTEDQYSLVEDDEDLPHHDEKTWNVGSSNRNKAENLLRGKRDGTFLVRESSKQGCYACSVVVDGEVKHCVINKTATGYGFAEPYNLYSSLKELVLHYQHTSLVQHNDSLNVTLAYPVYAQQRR

SMILES	IC50 (mTOR) [nM]	IC50 (MDA468) [nM]	IC50 (PI3K-alpha) [nM]	IC50 (LNCap) [nM]
CN1CCN(c2ccc(NC(=O)Nc3ccc(-c4nc(-c5ccccc5)cc(N5CC6CCC(C5)O6)n4)cc3)cc2)CC1 [1-[4-(4-methylpiperazin-1-yl)phenyl]-3-{4-[4-(8-oxa-3-azabicyclo[3.2.1]oct-3-yl)-6-phenylpyrimidin-2-yl]phenyl}urea]	17.5	270	2430	78
O=C(Nc1ccc(CO)cc1)Nc1ccc(-c2nc(-c3ccccc3)cc(N3CC4CCC(C3)O4)n2)cc1 [1-[4-(hydroxymethyl)phenyl]-3-{4-[4-(8-oxa-3-azabicyclo[3.2.1]oct-3-yl)-6-phenylpyrimidin-2-yl]phenyl}urea]	2.9	130	102	56
CC(C)Nc1cc(N2CC3CCC(C2)O3)nc(-c2ccc(NC(=O)NC3CC3)cc2)n1 [1-cyclopropyl-3-(4-{4-[(1-methylethyl)amino]-6-(8-oxa-3-azabicyclo[3.2.1]oct-3-yl)pyrimidin-2-yl}phenyl)urea]	8.2	4200	3620	700
CS(=O)(=O)Cc1cc(N2CC3CCC(C2)O3)nc(-c2ccc(NC(=O)NC3CC3)cc2)n1 [1-cyclopropyl-3-(4-{4-[(methylsulfonyl)methyl]-6-(8-oxa-3-azabicyclo[3.2.1]oct-3-yl)pyrimidin-2-yl}phenyl)urea]	5.7	2500	4640	1000
O=C(Nc1ccc(-c2cc(N3CC4CCC(C3)O4)nc(N3CC4CCC(C3)O4)n2)cc1)NC1CC1 [1-cyclopropyl-3-[4-(2,6-di-8-oxa-3-azabicyclo[3.2.1]oct-3-ylpyrimidin-4-yl)phenyl]urea]	38.5	6000	3930	800
CC(C)Oc1cc(N2CC3CCC(C2)O3)nc(-c2ccc(NC(=O)NC3CC3)cc2)n1 [1-cyclopropyl-3-{4-[4-(1-methylethoxy)-6-(8-oxa-3-azabicyclo[3.2.1]oct-3-yl)pyrimidin-2-yl]phenyl}urea]	4.45	1800	7200	290
O=C(Nc1ccc(-c2nc(N3CC4CCC(C3)O4)cc(C(F)(F)F)n2)cc1)NC1CC1 [1-cyclopropyl-3-{4-[4-(8-oxa-3-azabicyclo[3.2.1]oct-3-yl)-6-(trifluoromethyl)pyrimidin-2-yl]phenyl}urea]	10.4	3000	8160	450
O=C(Nc1ccc(-c2nc(-c3ccccc3)cc(N3CC4CCC(C3)O4)n2)cc1)NC1CC1 [1-cyclopropyl-3-{4-[4-(8-oxa-3-azabicyclo[3.2.1]oct-3-yl)-6-phenylpyrimidin-2-yl]phenyl}urea]	19.5	5000	3680	1000
CCNC(=O)Nc1ccc(-c2nc(CS(C)(=O)=O)cc(N3CC4CCC(C3)O4)n2)cc1 [1-ethyl-3-(4-{4-[(methylsulfonyl)methyl]-6-(8-oxa-3-azabicyclo[3.2.1]oct-3-yl)pyrimidin-2-yl}phenyl)urea]	5.75	1900	1810	1000
CCNC(=O)Nc1ccc(-c2nc(-c3ccccc3)cc(N3CC4CCC(C3)O4)n2)cc1 [1-ethyl-3-{4-[4-(8-oxa-3-azabicyclo[3.2.1]oct-3-yl)-6-phenylpyrimidin-2-yl]phenyl}urea]	11	1900	2050	450
CNC(=O)Nc1ccc(-c2nc(NC(C)C)cc(N3CC4CCC(C3)O4)n2)cc1 [1-methyl-3-(4-{4-[(1-methylethyl)amino]-6-(8-oxa-3-azabicyclo[3.2.1]oct-3-yl)pyrimidin-2-yl}phenyl)urea]	12	2100	810	500
CNC(=O)Nc1ccc(-c2nc(CS(C)(=O)=O)cc(N3CC4CCC(C3)O4)n2)cc1 [1-methyl-3-(4-{4-[(methylsulfonyl)methyl]-6-(8-oxa-3-azabicyclo[3.2.1]oct-3-yl)pyrimidin-2-yl}phenyl)urea]	13.5	3300	1730	2050
CNC(=O)Nc1ccc(-c2nc(OC(C)C)cc(N3CC4CCC(C3)O4)n2)cc1 [1-methyl-3-{4-[4-(1-methylethoxy)-6-(8-oxa-3-azabicyclo[3.2.1]oct-3-yl)pyrimidin-2-yl]phenyl}urea]	3	890	700	190
CNC(=O)Nc1ccc(-c2nc(N3CC4CCC(C3)O4)cc(C(F)(F)F)n2)cc1 [1-methyl-3-{4-[4-(8-oxa-3-azabicyclo[3.2.1]oct-3-yl)-6-(trifluoromethyl)pyrimidin-2-yl]phenyl}urea]	11.5	2100	1550	670
CNC(=O)Nc1ccc(-c2nc(-c3ccccc3)cc(N3CC4CCC(C3)O4)n2)cc1 [1-methyl-3-{4-[4-(8-oxa-3-azabicyclo[3.2.1]oct-3-yl)-6-phenylpyrimidin-2-yl]phenyl}urea]	22	2000	953	510
CNC(=O)Nc1ccc(-c2nccc(N3CC4CCC(C3)O4)n2)cc1 [1-methyl-3-{4-[4-(8-oxa-3-azabicyclo[3.2.1]oct-3-yl)pyrimidin-2-yl]phenyl}urea]	132	10500	1840	2500
CN(C)CCOc1ccc(NC(=O)Nc2ccc(-c3nc(CS(C)(=O)=O)cc(N4CC5CCC(C4)O5)n3)cc2)cc1 [1-{4-[2-(dimethylamino)ethoxy]phenyl}-3-(4-{4-[(methylsulfonyl)methyl]-6-(8-oxa-3-azabicyclo[3.2.1]oct-3-yl)pyrimidin-2-yl}phenyl)urea]	5	165	405	90
CN(C)CCOc1ccc(NC(=O)Nc2ccc(-c3nc(N4C5CCC4COC5)cc(N4C5CCC4COC5)n3)cc2)cc1 [1-{4-[2-(dimethylamino)ethoxy]phenyl}-3-[4-(4,6-di-3-oxa-8-azabicyclo[3.2.1]oct-8-ylpyrimidin-2-yl)phenyl]urea]	2.5	9	1540	4
CN(C)CCOc1ccc(NC(=O)Nc2ccc(-c3nc(-c4ccccc4)cc(N4CC5CCC(C4)O5)n3)cc2)cc1 [1-{4-[2-(dimethylamino)ethoxy]phenyl}-3-{4-[4-(8-oxa-3-azabicyclo[3.2.1]oct-3-yl)-6-phenylpyrimidin-2-yl]phenyl}urea]	19	300	141	120
CC(C)Nc1cc(N2C3CCC2COC3)nc(-c2ccc(NC(=O)Nc3ccc(OCCN(C)C)cc3)cc2)n1 [1-{4-[2-(dimethylamino)ethoxy]phenyl}-3-{4-[4-(isopropylamino)-6-(3-oxa-8-azabicyclo[3.2.1]oct-8-yl)pyrimidin-2-yl]phenyl}urea]	3.6	710	2380	50
CC(C)Oc1cc(N2CC3CCC(C2)O3)nc(-c2ccc(NC(=O)Nc3ccc(N4CCN(C)CC4)cc3)cc2)n1 [1-{4-[4-(1-methylethoxy)-6-(8-oxa-3-azabicyclo[3.2.1]oct-3-yl)pyrimidin-2-yl]phenyl}-3-[4-(4-methylpiperazin-1-yl)phenyl]urea]	3.32	105	518	30

Reference: patent publication US8835429B2, “Pyrimidine compounds, their use as mTOR kinase and Pl3 kinase inhibitors, and their syntheses” (Wyeth LLC, priority 2009, dated 2014)
